According to PubChem BioAssay AID1259407 (Chemical Carcinogenesis Research Information System (CCRIS), 2018):
Active and inactive are the calls of the source. The rule behind the calls is not given here.

System: CCRIS mutagenicity, Ames/micronucleus/aberration tests
Experiment: CCRIS mutagenicity studies

Measured: mutagenic call

O=C(O)c1ccccc1
inactive: Test System: AMES SALMONELLA TYPHIMURIUM, Strain/Indicator: TA97, Metabolic Activation: HAMSTER, LIVER, S-9, AROCLOR 1254 (10 OR 30%), Method: PREINCUBATION inactive; negative | Test System: AMES SALMONELLA TYPHIMURIUM, Strain/Indicator: TA97, Metabolic Activation: NONE, Method: PREINCUBATION inactive; negative | Test System: AMES SALMONELLA TYPHIMURIUM, Strain/Indicator: TA97, Metabolic Activation: RAT, LIVER, S-9, AROCLOR 1254, Method: PREINCUBATION inactive; negative | Test System: AMES SALMONELLA TYPHIMURIUM, Strain/Indicator: TA97, Metabolic Activation: RAT,LIVER, S-9, AROCLOR 1254 (10 OR 30%), Method: PREINCUBATION inactive; negative | Test System: AMES SALMONELLA TYPHIMURIUM, Strain/Indicator: TA97A, Metabolic Activation: NONE, Method: PREINCUBATION inactive; negative | Test System: AMES SALMONELLA TYPHIMURIUM, Strain/Indicator: TA97A, Metabolic Activation: RAT, LIVER, S-9, AROCLOR 1254, Method: PREINCUBATION inactive; negative | Test System: AMES SALMONELLA TYPHIMURIUM, Strain/Indicator: TA98, Metabolic Activation: GUINEA PIG, LIVER, S-9, PCB, Method: PREINCUBATION inactive; negative | Test System: AMES SALMONELLA TYPHIMURIUM, Strain/Indicator: TA98, Metabolic Activation: HAMSTER, LIVER, S-9, AROCLOR 1254 (10 OR 30%), Method: PREINCUBATION inactive; negative | Test System: AMES SALMONELLA TYPHIMURIUM, Strain/Indicator: TA98, Metabolic Activation: HAMSTER, LIVER, S-9, PCB, Method: PREINCUBATION inactive; negative | Test System: AMES SALMONELLA TYPHIMURIUM, Strain/Indicator: TA98, Metabolic Activation: MOUSE, LIVER, S-9, PCB, Method: PREINCUBATION inactive; negative | Test System: AMES SALMONELLA TYPHIMURIUM, Strain/Indicator: TA98, Metabolic Activation: NONE, Method: PREINCUBATION inactive; negative | Test System: AMES SALMONELLA TYPHIMURIUM, Strain/Indicator: TA98, Metabolic Activation: NONE, Method: STANDARD PLATE inactive; negative | Test System: AMES SALMONELLA TYPHIMURIUM, Strain/Indicator: TA98, Metabolic Activation: RAT, LIVER, S-9, AROCLOR 1254 (10%), Method: PREINCUBATION inactive; negative | Test System: AMES SALMONELLA TYPHIMURIUM, Strain/Indicator: TA98, Metabolic Activation: RAT, LIVER, S-9, AROCLOR 1254 (30%), Method: PREINCUBATION inactive; negative | Test System: AMES SALMONELLA TYPHIMURIUM, Strain/Indicator: TA98, Metabolic Activation: RAT, LIVER, S-9, AROCLOR 1254, Method: STANDARD PLATE inactive; negative | Test System: AMES SALMONELLA TYPHIMURIUM, Strain/Indicator: TA98, Metabolic Activation: RAT, LIVER, S-9, PCB, Method: PREINCUBATION inactive; negative | Test System: AMES SALMONELLA TYPHIMURIUM, Strain/Indicator: TA100, Metabolic Activation: GUINEA PIG, LIVER, S-9, PCB, Method: PREINCUBATION inactive; negative | Test System: AMES SALMONELLA TYPHIMURIUM, Strain/Indicator: TA100, Metabolic Activation: HAMSTER, LIVER, S-9, AROCLOR 1254 (10 OR 30%), Method: PREINCUBATION inactive; negative | Test System: AMES SALMONELLA TYPHIMURIUM, Strain/Indicator: TA100, Metabolic Activation: HAMSTER, LIVER, S-9, PCB, Method: PREINCUBATION inactive; negative | Test System: AMES SALMONELLA TYPHIMURIUM, Strain/Indicator: TA100, Metabolic Activation: MOUSE, LIVER, S-9, PCB, Method: PREINCUBATION inactive; negative | Test System: AMES SALMONELLA TYPHIMURIUM, Strain/Indicator: TA100, Metabolic Activation: NONE, Method: PREINCUBATION inactive; negative | Test System: AMES SALMONELLA TYPHIMURIUM, Strain/Indicator: TA100, Metabolic Activation: NONE, Method: STANDARD PLATE inactive; negative | Test System: AMES SALMONELLA TYPHIMURIUM, Strain/Indicator: TA100, Metabolic Activation: RAT, LIVER, S-9, AROCLOR 1254 (10 OR 30%), Method: PREINCUBATION inactive; negative | Test System: AMES SALMONELLA TYPHIMURIUM, Strain/Indicator: TA100, Metabolic Activation: RAT, LIVER, S-9, AROCLOR 1254, Method: STANDARD PLATE inactive; negative | Test System: AMES SALMONELLA TYPHIMURIUM, Strain/Indicator: TA100, Metabolic Activation: RAT, LIVER, S-9, PCB, Method: PREINCUBATION inactive; negative | Test System: AMES SALMONELLA TYPHIMURIUM, Strain/Indicator: TA102, Metabolic Activation: NONE, Method: PREINCUBATION inactive; negative | Test System: AMES SALMONELLA TYPHIMURIUM, Strain/Indicator: TA102, Metabolic Activation: RAT, LIVER, S-9, AROCLOR 1254, Method: PREINCUBATION inactive; negative | Test System: AMES SALMONELLA TYPHIMURIUM, Strain/Indicator: TA1535, Metabolic Activation: HAMSTER, LIVER, S-9, AROCLOR 1254 (10 OR 30%), Method: PREINCUBATION inactive; negative | Test System: AMES SALMONELLA TYPHIMURIUM, Strain/Indicator: TA1535, Metabolic Activation: NONE, Method: PREINCUBATION inactive; negative | Test System: AMES SALMONELLA TYPHIMURIUM, Strain/Indicator: TA1535, Metabolic Activation: NONE, Method: STANDARD PLATE inactive; negative | Test System: AMES SALMONELLA TYPHIMURIUM, Strain/Indicator: TA1535, Metabolic Activation: RAT, LIVER, S-9, AROCLOR 1254 (10%), Method: PREINCUBATION inactive; negative | Test System: AMES SALMONELLA TYPHIMURIUM, Strain/Indicator: TA1535, Metabolic Activation: RAT, LIVER, S-9, AROCLOR 1254 (30%), Method: PREINCUBATION inactive; negative | Test System: AMES SALMONELLA TYPHIMURIUM, Strain/Indicator: TA1535, Metabolic Activation: RAT, LIVER, S-9, AROCLOR 1254, Method: STANDARD PLATE inactive; negative | Test System: AMES SALMONELLA TYPHIMURIUM, Strain/Indicator: TA1537, Metabolic Activation: HAMSTER, LIVER, S-9, AROCLOR 1254 (10 OR 30%), Method: PREINCUBATION inactive; negative | Test System: AMES SALMONELLA TYPHIMURIUM, Strain/Indicator: TA1537, Metabolic Activation: NONE, Method: PREINCUBATION inactive; negative | Test System: AMES SALMONELLA TYPHIMURIUM, Strain/Indicator: TA1537, Metabolic Activation: NONE, Method: STANDARD PLATE inactive; negative | Test System: AMES SALMONELLA TYPHIMURIUM, Strain/Indicator: TA1537, Metabolic Activation: RAT, LIVER, S-9, AROCLOR 1254 (10%), Method: PREINCUBATION inactive; negative | Test System: AMES SALMONELLA TYPHIMURIUM, Strain/Indicator: TA1537, Metabolic Activation: RAT, LIVER, S-9, AROCLOR 1254 (30%), Method: PREINCUBATION inactive; negative | Test System: AMES SALMONELLA TYPHIMURIUM, Strain/Indicator: TA1537, Metabolic Activation: RAT, LIVER, S-9, AROCLOR 1254, Method: STANDARD PLATE inactive; negative | Test System: AMES SALMONELLA TYPHIMURIUM, Strain/Indicator: TA1538, Metabolic Activation: NONE, Method: STANDARD PLATE inactive; negative | Test System: AMES SALMONELLA TYPHIMURIUM, Strain/Indicator: TA1538, Metabolic Activation: RAT, LIVER, S-9, AROCLOR 1254, Method: STANDARD PLATE inactive; negative | Test System: Ames Salmonella typhimurium, Strain/Indicator: TA98, Metabolic Activation: None, Method: Direct plate incorporation inactive; negative | Test System: Ames Salmonella typhimurium, Strain/Indicator: TA98, Metabolic Activation: Rat, liver, S-9, Aroclor 1254, Method: Direct plate incorporation inactive; negative | Test System: Ames Salmonella typhimurium, Strain/Indicator: TA100, Metabolic Activation: None, Method: Direct plate incorporation inactive; negative | Test System: Ames Salmonella typhimurium, Strain/Indicator: TA100, Metabolic Activation: Rat, liver, S-9, Aroclor 1254, Method: Direct plate incorporation inactive; negative | Test System: E. COLI, Strain/Indicator: WP2, Metabolic Activation: NONE, Method: STANDARD PLATE inactive; negative | Test System: E. COLI, Strain/Indicator: WP2, Metabolic Activation: RAT, LIVER, S-9, AROCLOR 1254, Method: STANDARD PLATE inactive; negative
